Results on 13 compounds are retold here after ChEMBL document CHEMBL1142685, “Novel anticholinesterases based on the molecular skeletons of furobenzofuran and methanobenzodioxepine” (J Med Chem, 2005).

Molecules are shown by their SMILES.

One assay addresses Acetylcholinesterase (Homo sapiens, UniProt P22303).
The target in the next assay is Cholinesterase (Homo sapiens, UniProt P06276).
Another assay has as its system SK-N-SH. The assay can be described thus: Reduction in Amyloid-beta precursor protein levels in Human SK-N-SH cells at 10 uM. Format: functional.

Chain of Cholinesterase (P06276 whole entry): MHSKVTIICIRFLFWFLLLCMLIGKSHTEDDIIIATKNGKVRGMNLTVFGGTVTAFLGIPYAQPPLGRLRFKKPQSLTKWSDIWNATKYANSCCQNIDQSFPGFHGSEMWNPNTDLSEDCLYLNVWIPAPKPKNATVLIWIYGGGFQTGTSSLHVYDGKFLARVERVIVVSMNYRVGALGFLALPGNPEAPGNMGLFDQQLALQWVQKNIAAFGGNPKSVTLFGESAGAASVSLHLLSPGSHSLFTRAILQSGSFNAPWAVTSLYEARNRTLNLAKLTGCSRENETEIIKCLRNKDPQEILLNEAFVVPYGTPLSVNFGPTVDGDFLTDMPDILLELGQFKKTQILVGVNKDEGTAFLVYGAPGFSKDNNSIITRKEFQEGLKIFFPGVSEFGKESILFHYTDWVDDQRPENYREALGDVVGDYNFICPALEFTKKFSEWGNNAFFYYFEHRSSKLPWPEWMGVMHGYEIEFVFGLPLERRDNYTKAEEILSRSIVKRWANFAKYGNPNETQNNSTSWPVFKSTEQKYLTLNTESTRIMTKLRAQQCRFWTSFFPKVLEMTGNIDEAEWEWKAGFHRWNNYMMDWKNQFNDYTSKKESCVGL
Chain of Acetylcholinesterase (P22303 whole entry): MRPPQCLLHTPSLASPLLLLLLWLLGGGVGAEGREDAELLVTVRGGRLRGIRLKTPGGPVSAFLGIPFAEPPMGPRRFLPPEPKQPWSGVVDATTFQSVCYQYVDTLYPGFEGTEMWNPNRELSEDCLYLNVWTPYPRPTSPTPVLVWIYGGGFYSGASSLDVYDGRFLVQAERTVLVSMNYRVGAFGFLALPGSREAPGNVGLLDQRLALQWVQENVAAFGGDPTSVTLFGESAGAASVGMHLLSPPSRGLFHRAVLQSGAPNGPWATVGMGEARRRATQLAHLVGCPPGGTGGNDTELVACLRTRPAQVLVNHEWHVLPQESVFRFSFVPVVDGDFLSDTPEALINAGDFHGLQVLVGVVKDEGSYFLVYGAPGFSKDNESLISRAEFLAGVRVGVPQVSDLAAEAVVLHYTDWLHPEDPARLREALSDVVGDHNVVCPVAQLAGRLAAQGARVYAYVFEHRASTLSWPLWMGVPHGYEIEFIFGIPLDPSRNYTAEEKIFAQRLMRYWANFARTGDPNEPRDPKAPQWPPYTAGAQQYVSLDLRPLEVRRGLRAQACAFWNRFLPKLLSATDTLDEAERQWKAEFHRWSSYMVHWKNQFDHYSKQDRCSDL
Description for Acetylcholinesterase: Inhibitory concentration against human erythrocyte Acetylcholinesterase

With `Cc1ccccc1NC(=O)Oc1ccc2c(c1)C1(C)COC(C1)O2` (configuration not stated), the figures for the IC50 at Acetylcholinesterase and on Cholinesterase were 56 nM and over 30000 nM, respectively.
As for `CCNC(=O)Oc1ccc2c(c1)[C@]1(C)CCN(C)C1N2C` (some centres not stated), the IC50 (as a rule, the concentration that gives 50% inhibition) amounted to 94 nM against Acetylcholinesterase and 4 nM against Cholinesterase.
`CN1CC[C@@]2(C)c3cc(OC(=O)Nc4ccccc4)ccc3N(C)[C@@H]12` [PHENSERINE]: in the assay with SK-N-SH, the Reduction is on record as 50%.
For the compound `CCc1ccccc1NC(=O)Oc1ccc2c(c1)[C@]1(C)CC[N+](C)([O-])[C@@H]1N2C` (some centres not stated), the IC50 stood at 125 nM on Acetylcholinesterase and 1700 nM on Cholinesterase.
Turning to `Cc1ccccc1NC(=O)Oc1ccc2c(c1)[C@]1(C)CCOC1N2C` (some centres not stated), the IC50 stood at 13 nM on Acetylcholinesterase and 1560 nM against Cholinesterase.
As for `CC(C)c1ccc(NC(=O)Oc2ccc3c(c2)[C@]2(C)CCOC2N3C)cc1` (some centres not stated), the IC50 at Acetylcholinesterase amounted to 3860 nM; against Cholinesterase, 17 nM.
`CC(C)c1ccc(NC(=O)Oc2ccc3c(c2)C2(C)COC(C2)O3)cc1` (configuration not stated): the IC50 on Acetylcholinesterase turned out to be 4300 nM; at Cholinesterase it was 22 nM.
For the compound `Cc1ccccc1NC(=O)Oc1ccc2c(c1)C1(C)CCOC1O2` (configuration not stated), the IC50 against Cholinesterase was over 30000 nM.
Take `CCNC(=O)Oc1ccc2c(c1)C1(C)CCOC1O2` (configuration not stated): the half-maximal inhibitory concentration (IC50) at Acetylcholinesterase is 360 nM; against Cholinesterase, 6 nM.
For the compound `CC(C)c1ccc(NC(=O)Oc2ccc3c(c2)C2(C)CCOC2O3)cc1` (configuration not stated), on Cholinesterase, half-maximal inhibition (IC50) required 27 nM.
On Cholinesterase, `CCNC(=O)Oc1ccc2c(c1)C1(C)COC(C1)O2` (configuration not stated) came in with an IC50 of 24 nM.
As for `CCNC(=O)Oc1ccc2c(c1)[C@]1(C)CCOC1N2C` (some centres not stated), the IC50 turned out to be 82 nM at Acetylcholinesterase and 2 nM against Cholinesterase.
For the compound `CNC(=O)Oc1ccc2c(c1)[C@]1(C)CCOC1N2C` (some centres not stated), the IC50 against Acetylcholinesterase amounted to 27 nM; at Cholinesterase, 4 nM.
